# Measurements taken from patent US9517214B2, “Fat-based food products” (IP Science Limited, priority 2011, dated 2016).
# Assays:
# [1] = daily consumption of 6-10 mg lycopene; cited from earlier work
# [2] = test system: clinically healthy volunteers with hypercholesterolaemia; assay: Serum lipids (TC, TG, HDL, LDL) in trial of lycopene, butter and L-Butter; type: in vivo, human; conditions: after one week of administration of 7 mg of lycopene
# Procedure: (§1) Clinically Healthy Volunteers with Hypercholesterolaemia
# (§2) Commercially available butter (President, Lactalis) was melted at 40° C. The melted butter was blended with tomato oleoresin, containing 15% of lycopene (Lyc-O-Mato), in the ratio of […] of oleoresin to 30 g of the butter in a thermo-controlled mixer. The mixture was blended for 10 minutes and cooled down to the room temperature. The butter was then divided into daily 30 g portions. Butter was stored at 4° C. until use. Freshly made batches of the L-Butter were made weekly.
# (§3) Each portion of 30 g butter contained 47.1 mg of tomato oleoresin or about 7 mg of lycopene.
# (§4) The melting and mixing procedures were performed as described above using the same commercially available butter, but instead of tomato oleoresin, sunflower oil (Flora™) was used.
# (§5) 47.1 mg of tomato oleoresin was pre-dissolved in ethanol and mixed with Whey Protein as described in Richelle et al (2002) J. Nutr 132 404-408, WO01/091588 and US2002/01072992. Then the mixture was placed into gelatine capsules.
# (§6) 18 clinically healthy volunteers, 9 males and 9 females, age 45-69, were recruited for this study.
# (§7) • elevated total serum cholesterol above 200 mg/dL and/or triglycerides above 150 mg/dL, • all patients were naive for any lipid-lowering medications, • willing participate in the study. […]
# (§8) All blood samples were coded. Their lab analysis and reading of the results were blinded. […]
# [3] = test system: clinically healthy volunteers with hypercholesterolaemia; assay: Antibody inflammatory marker Px-IgG in the same trial; type: in vivo, human; conditions: 7 mg lycopene daily, capsules; Baseline; individual volunteers
# Procedure: as §1, §2, §3, §4, §5, §6, §7, §8
structure (smiles),measurement,setting,value
CC(C)=CCC/C(C)=C/C=C/C(C)=C/C=C/C(C)=C/C=C/C=C(C)/C=C/C=C(C)/C=C/C=C(\C)CCC=C(C)C [Lycopene],effect on cholesterol or other blood lipids,[1],no effect
same,"changes in levels of elevated cholesterol, triglycerides and markers of oxidative damage or inflammation",[2],not any changes
same,Px-IgG,[3],0.765 U/ml
